From ChEMBL document CHEMBL1147248, “A new acylated oleanane triterpenoid from Couepia polyandra that inhibits the lyase activity of DNA polymerase beta” (J Nat Prod, 2003)

target: DNA polymerase beta (Homo sapiens, UniProt P06746); test: Inhibition of DNA polymerase beta lyase activity by deoxyribose phosphate excision assay

CC(=O)OC[C@@]1(C)[C@@H]2CC[C@]3(C)[C@H](CC=C4[C@@H]5CC(C)(C)CC[C@]5(C(=O)O)[C@@H](OC(C)=O)C[C@]43C)[C@@]2(C)CC[C@@H]1OC(C)=O and CC1(C)CC[C@]2(C(=O)O)CC[C@]3(C)C(=CC[C@@H]4[C@@]5(C)CC[C@H](O)C(C)(C)[C@@H]5CC[C@]43C)[C@@H]2C1 [OLEANOLIC_ACID] are within 1.5-fold of each other in IC50: 13 µM for the first, 8.8 µM for the second.

Compared with CC[C@H](CC[C@@H](C)[C@H]1CC[C@H]2[C@@H]3CC=C4C[C@@H](O)CC[C@]4(C)[C@H]3CC[C@]12C)C(C)C [BETA-SITOSTEROL], CC[C@H](/C=C/[C@@H](C)[C@H]1CC[C@H]2[C@@H]3CC=C4C[C@@H](O)CC[C@]4(C)[C@H]3CC[C@]12C)C(C)C [STIGMASTEROL] is 1.7-fold higher in IC50: 26.3 µM for the first, 43.4 µM for the second.
